Experimental data published in patent US7335671B2, “Arylcycloalkyl-substituted alkanoic acid derivatives, processes for their preparation and their use as pharmaceuticals” (Sanofi-Aventis Deutschland GmbH, priority 2003, dated 2008).

target: T1, PPARalpha (Homo sapiens, UniProt Q07869); experiment: Cellular PPARalpha assay (stably transfected HEK luciferase reporter cell line); format: cell-based; details: GR-GAL4-humanPPARalpha-LBD
T1 construct: human PPARalpha receptor (amino acids S167-Y468); expressed in transfected cells; host or cells: HEK (human embryo kidney) cells, stably transfected; pcDNA3 vector, CMV promoter
T1 sequence (Q07869 167-468): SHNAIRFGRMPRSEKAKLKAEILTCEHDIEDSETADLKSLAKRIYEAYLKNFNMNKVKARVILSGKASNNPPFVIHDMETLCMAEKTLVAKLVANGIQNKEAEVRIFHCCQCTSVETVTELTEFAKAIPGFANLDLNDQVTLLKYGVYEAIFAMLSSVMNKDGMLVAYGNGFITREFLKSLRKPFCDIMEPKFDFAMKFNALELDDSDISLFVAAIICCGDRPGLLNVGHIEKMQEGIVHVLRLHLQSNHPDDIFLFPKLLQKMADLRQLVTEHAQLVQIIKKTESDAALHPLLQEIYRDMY
Method: Determination of EC50 Values of PPAR agonists in the Cellular PPARalpha Assay
The potency of substances which bind to human PPARA and activate in an agonistic manner is analyzed using a stably transfected HEK cell line (HEK =human embryo kidney) which is referred to here as PPARalpha reporter cell line. It contains two genetic elements, a luciferase reporter element (pδM-GAL4-Luc-Zeo) and a PPARalpha fusion protein (GR-GAL4-humanPPARα-LBD) which mediates expression of the luciferase reporter element depending on a PPARalpha ligand. The stably and constitutively expressed fusion protein GR-GAL4-humanPPARalpha-LBD binds in the cell nucleus of the PPARalpha reporter cell line via the GAL4 protein portion to the GAL4 DNA binding motifs 5′-upstream of the luciferase reporter element which is integrated in the genome of the cell line. There is only little expression of the luciferase reporter gene without addition of a PPARalpha ligand if fatty acid-depleted fetal calf serum (cs-FCS) is used in the assay. PPARα ligands bind and activate the PPARα fusion protein and thereby bring about expression of the luciferase reporter gene. The luciferase which is formed can be detected by means of chemiluminescence via an appropriate substrate.
The PPARalpha reporter cell line was prepared in 2 stages. Firstly, the luciferase reporter element was constructed and stably transfected into HEK cells. For this purpose, five binding sites of the yeast transcription factor GAL4 (each 5′-CGGAGTACTGTCCTCCGAG-3′) (SEQ ID No. 1) were cloned in 5′-upstream of a 68 bp-long minimal MMTV promoter (Genbank Accession # V01 175). The minimal MMTV promoter section contains a CCAAT box and a TATA element in order to enable efficient transcription by RNA polymerase 11. The cloning and sequencing of the GAL4-MMTV construct took place in analogy to the description of Sambrook J. et. al. (Molecular cloning, Cold Spring Harbor Laboratory Press, 1989). Then the complete Photinus pyralis gene (Genbank Accession # M15077) was cloned in 3′-downstream of the GAL4-MMTV element. After sequencing, the luceriferase reporter element consisting of five GAL4 binding sites, MMTV promoter and luciferase gene was recloned into a plasmid which confers zeocin resistance in order to obtain the plasmid pδM-GAL4-Luc-Zeo. This vector was transfected into HEK cells in accordance with the statements in Ausubel, F. M. et al. (Current protocols in molecular biology, Vol. 1-3, John Wiley & Sons, Inc., 1995).
In a second step, the PPARalpha fusion protein (GR-GAL4-humanPPARalpha-LBD was introduced into the stable cell clone described. For this purpose, initially the cDNA coding for the N-terminal 76 amino acids of the glucocorticoid receptor (Genbank Accession # P04150) was linked to the cDNA section coding for amino acids 1-147 of the yeast transcription factor GAL4 (Genbank Accession # P04386). The cDNA of the ligand-binding domain of the human PPARalpha receptor (amino acids S167-Y468; Genbank Accession # S74349) was cloned in at the 3′-end of this GR-GAL4 construct. The fusion construct prepared in this way (GR-GAL4-humanPPARalpha-LBD) was recloned into the plasmid pcDNA3 (from Invitrogen) in order to enable constitutive expression therein by the cytomegalovirus promoter. This plasmid was linearized with a restriction endonuclease and stably transfected into the previously described cell clone containing the luciferase reporter element. The finished PPARalpha reporter cell line which contains a luciferase reporter element and constitutively expresses the PPARalpha fusion protein (GR-GAL4-human PPARalpha-LBD) was isolated by selection with zeocin (0.5 mg/ml) and G418 (0.5 mg/ml).
The activity of PPARalpha agonists is determined in a 3-day assay which is described below: […]

EC50 [nM]	SMILES
41	CCC(CCO[C@@H]1CCC[C@H](OCc2nc(-c3ccc(F)cc3)oc2C)C1)C(=O)O (stereo partly drawn) [Example 1, 2-Ethyl-4{(1R,3S)-3-[2-(4-fluorophenyl)-5-methyloxazol-4-ylmethoxy]-cyclohexyloxy}butanoic acid]
69	Cc1cccc(-c2nc(CO[C@H]3CCC[C@@H](OCC4(C(=O)O)CC4)C3)c(C)o2)c1 [Example 5, (1R,3S)-1-[3-(5-methyl-2-m-tolyloxazol-4-ylmethoxy)cyclohexyloxymethyl]cyclo-propanecarboxylic acid]
24	COCC(CO[C@@H]1CCC[C@H](OCc2nc(-c3cccc(C)c3)oc2C)C1)C(=O)O (stereo partly shown) [Example 8, (1R′,3S′)-2R/S-Methoxymethyl-3-[3-(5-methyl-2-m-tolyloxazol-4-ylmethoxy)cyclo-hexyloxy]propionic acid]
1.5	Cc1cccc(-c2nc(CO[C@H]3CCC[C@@H](OCC(OCc4ccc(C(C)(C)C)cc4)C(=O)O)C3)c(C)o2)c1 (stereo partly drawn) [Example 18, 3-[(1R,3S)-3-(5-Methyl-2-m-tolyloxazol-4-ylmethoxy)cyclohexyloxy]-2-(4-tert-butylbenzyloxy)propanoic acid]
43	C#CCOC(CO[C@@H]1CCC[C@H](OCc2nc(-c3cccc(C)c3)oc2C)C1)C(=O)O (stereo partly drawn) [Example 22, 3-[(1R,3S)-3-(5-Methyl-2-m-tolyloxazol-4-ylmethoxy)cyclohexyloxy]-2-(2-propynyl-oxy)propionic acid]
6.2	Cc1cccc(-c2nc(CO[C@H]3CCC[C@@H](OCC(OC/C=C/c4ccccc4)C(=O)O)C3)c(C)o2)c1 (stereo partly drawn) [Example 25, 3-[(1R,3S)-3-(5-Methyl-2-m-tolyloxazol-4-ylmethoxy)cyclohexyloxy]-2-(3-phenyl-2-propenyloxy)propionic acid]
84	COC(CO[C@@H]1CCC[C@H](OCc2nc(-c3ccc4ccccc4c3)oc2C)C1)C(=O)O (stereo partly drawn) [Example 35, 2-Methoxy-3-{(1R,3S)-3-[5-methyl-2-(3-naphthyl)oxazol-4-ylmethoxy]cyclohexyl-oxy}propionic acid]
14	COC(CO[C@@H]1CCC[C@H](OCc2nc(-c3ccc(C)cc3C)oc2C)C1)C(=O)O (stereo partly drawn) [Example 36, 2-Methoxy-3-{(1R,3S)-3-[5-methyl-2-(2,4-dimethylphenyl)oxazol-4-ylmethoxy]-cyclohexyloxy}propionic acid]
0.8	CCCOC(CO[C@@H]1CCC[C@H](OCc2nc(-c3ccc(C)cc3)oc2C)C1)C(=O)O (stereo partly drawn) [Example 47, 3-{(1R,3S)-3-[5-Methyl-2-(4-methylphenyl)oxazol-4-ylmethoxy]cyclohexyloxy}-2-propoxypropionic acid]
22	CCCOC(CO[C@@H]1CCC[C@H](OCc2nc(-c3cccc(C(F)(F)F)c3)oc2C)C1)C(=O)O (stereo partly drawn) [Example 52, 3-{(1R,3S)-3-[5-Methyl-2-(3-trifluoromethylphenyl)oxazol-4-ylmethoxy]cyclohexyl-oxy}-2-propoxypropionic acid]
26	CCOC(CO[C@@H]1CCC[C@H](OCc2nc(-c3ccc(OC(F)(F)F)cc3)oc2C)C1)C(=O)O (stereo partly drawn) [Example 60, 2-Ethoxy-3-{(1R,3S)-3-[5-methyl-2-(4-trifluoromethoxyphenyl)oxazol-4-ylmethoxy]-cyclohexyloxy}propionic acid]
0.6	Cc1ccc(-c2nc(CO[C@H]3CCC[C@@H](OC[C@@H](OCc4ccc(C(F)(F)F)cc4)C(=O)O)C3)c(C)o2)cc1 [Example 81, (R)-3-[(1R,3S)-3-(5-Methyl-2-(4-methylphenyl)oxazol-4-ylmethoxy)cyclohexyloxy]-2-(4-trifluoromethylbenzyloxy)propionic acid]
78	Cc1cccc(-c2nc(CO[C@H]3CCC[C@@H](OCC(Cc4cccc(C(F)(F)F)c4)C(=O)O)C3)c(C)o2)c1 (stereo partly drawn) [Example 91, 2-[(1R,3S)-3-(5-Methyl-2-m-tolyloxazol4-ylmethoxy)cyclohexyloxymethyl]-3-(3-trifluoromethylphenyl)propionic acid]
